SMILES strings stand for the structures.

The nature of series [1]: Pharmacokinetics test in SD rats (iv and po). Format: in vivo. The following applies: male, SD, rat, in vivo. The method, then:
Example 37: Pharmacokinetics Test
Experimental animals: six healthy adult male SD rats (purchased from Hunan Slack King of Laboratory Animal Co. Ltd.) were divided into two groups, three rats in each group, and the two grops were given intravenous injection and oral administration respectively.
Drug preparation: a quantity of a compound of the present invention was weighed, and 5% DMSO, 10% Kolliphor HS15 and 85% saline (0.9%) were added to give target concentrations of the compound solution.
Administration and sample collection: animals were fasting for 12 h until administered, eating 3 h after the administration. Hind legs of SD rats of one group were given intravenous injection (IV, 1 mg/kg) and SD rats of the other group were given oral administration (PO, 5 mg/kg) respectively. Then blood was collected in the rat tail vein at the time point 0, 0.083, 0.25, 0.5, 1, 2, 4, 6, 8, 24 h respectively, and the blood volume was about 200-400 μL/time points. After the collection of whole blood at each time point, the colleted blood was set in K2EDTA anticoagulant tube, and the tube was placed in the incubator with ice packs. All samples were centrifuged for 5 min at 4° C. at 4600 r/min within 15 min. Plasma was separated and colleted. The concentrations of different compounds in the plasma of the rats after adminstration were measured using LC/MS/MS method, and the pharmacokinetic parameters were calculated according to the curve of the drug concentration-time.
Pharmacokinetic properties of the compounds of the present invention were tested by the experiment above, and the pharmacokinetic parameters were shown in Table 3.

Series [2] has as its target nuclear receptor FXR recombinant protein (Homo sapiens (Human), UniProt Q96RI1). In words: TR-FRET Farnesoid X Receptor Coactivator Assay. The note with it: Fluorescein-SRC2-2, Tb anti-GST antibody, 1 h room temperature. Format: biochemical. The method, then: Example 36: TR-FRET Farnesoid X Receptor Coactivator Assay
Purchasing invitrogen PV4833 kits.
First, the required amount of the compound was weighed and dissolved in 100% DMSO at the maximum concentration of 3000 μM. The solution at the maximum concentration was diluted by 3-fold serial dilution in DMSO to get 10 concentrations;
Second, the above prepared solutions of different concentrations were diluted to 100-fold with a buffer supplied with the kit, followed by mixing and then 10 μL of the diluted solution was added to a 384 well plate;
Third, nuclear receptor FXR recombinant protein was diluted with a buffer to give a concentration of 4×, and 5 μL of the diluent was added to the 384 well plate of second step;
Fourth, Fluorescein-SRC2-2 and Tb anti-GST antibody were diluted with a buffer to give a concentration of 4× respectively. Then two reagents were mixed together, and 10 μL of the mixture was added to the 384 well plate of third step;
Finally, the solution of the 384 well above was mixed uniformly by centrifuging, and then incubated at room temperature for 1 h. Then the TR-FRET Endpoint was used for measuring the solution at wavelengths of 520 nm, 495 nm and 337 nm. EC50 values were calculated according to the measured value of ER=520 nm/495 nm.

nuclear receptor FXR recombinant protein, sequence (Q96RI1 258-486, other chains not shown): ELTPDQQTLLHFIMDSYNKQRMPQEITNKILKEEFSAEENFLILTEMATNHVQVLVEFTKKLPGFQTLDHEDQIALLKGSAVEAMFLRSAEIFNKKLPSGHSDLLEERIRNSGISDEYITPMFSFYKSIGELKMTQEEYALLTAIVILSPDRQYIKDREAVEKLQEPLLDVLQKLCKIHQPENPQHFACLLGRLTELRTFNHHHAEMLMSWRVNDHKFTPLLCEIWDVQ

`CC(C)c1cnn(-c2c(Cl)cccc2Cl)c1COc1ccc2c(n1)CCc1ccc(C(=O)O)cc1O2` [Example 17, 2-((1-(2,6-dichlorophenyl)-4-isopropyl-1H-pyrazol-5-yl)methoxy)-10,11-dihydrobenzo[6,7]oxepino[3,2-b]pyridine-7-carboxylic acid] had a F in series [1] of 67.7%. Besides, in series [1] (iv, 1 mg/kg), the area under the curve AUC(0-inf) worked out at 1840 ng·h/mL, the exposure AUC(0-t) stood at 1840 ng·h/mL, the peak concentration (Cmax) was 4280 ng/mL and the MRT inf came out at 19.2 min. For the same compound, in series [1] (iv, 1 mg/kg), the time to peak (Tmax) came to 4.8 min, the Vd is 0.89 L/kg, the clearance worked out at 50 mL/min/kg and the half-life was 25.8 min. Moreover, in series [1] (po, 5 mg/kg), the AUC(0-inf) was 6240 ng·h/mL, the AUC(0-t) amounted to 6230 ng·h/mL, the maximum concentration (Cmax) stood at 5960 ng/mL and the mean residence time (MRT inf) was 50.4 min. In series [1] (po, 5 mg/kg), the Tmax turned out to be 19.8 min and the half-life was 47.4 min. For the same compound, the EC50 in series [2] is 23 nM.

The values above are taken from patent US10183917B2, “Tricyclic compounds and uses thereof in medicine” (Sunshine Lake Pharma Co., Ltd., priority 2015, dated 2019).
